Laboratory results from ChEMBL document CHEMBL5257119, “New insight into the bioactivity of substituted benzimidazole derivatives: Repurposing from anti-HIV activity to cell migration inhibition targeting hnRNP M” (Bioorg Med Chem, 2023).
Active and inactive are the calls of the source. The rule behind the calls is not given here.

What was measured:
A549 [1] = test: Antimigratory activity against TGFbeta-stimulated human A549 cells assessed as inhibition of cell migration measured for 1 day by cell scratch assay; assay type: functional, cell-based
A549 [2] = test: Cytotoxicity against human A549 cells assessed as reduction in cell growth at 20 uM measured for 2 days by MTT assay; assay type: functional, cell-based; conditions: time 2.0 day
[3] = target: T1, Heterogeneous nuclear ribonucleoprotein M (Homo sapiens) (UniProt P52272); test: Competitive inhibition of hnRNP M to in human A549 cells at 50 uM by immunoblotting analysis; assay type: cell-based
T1 sequence (whole entry): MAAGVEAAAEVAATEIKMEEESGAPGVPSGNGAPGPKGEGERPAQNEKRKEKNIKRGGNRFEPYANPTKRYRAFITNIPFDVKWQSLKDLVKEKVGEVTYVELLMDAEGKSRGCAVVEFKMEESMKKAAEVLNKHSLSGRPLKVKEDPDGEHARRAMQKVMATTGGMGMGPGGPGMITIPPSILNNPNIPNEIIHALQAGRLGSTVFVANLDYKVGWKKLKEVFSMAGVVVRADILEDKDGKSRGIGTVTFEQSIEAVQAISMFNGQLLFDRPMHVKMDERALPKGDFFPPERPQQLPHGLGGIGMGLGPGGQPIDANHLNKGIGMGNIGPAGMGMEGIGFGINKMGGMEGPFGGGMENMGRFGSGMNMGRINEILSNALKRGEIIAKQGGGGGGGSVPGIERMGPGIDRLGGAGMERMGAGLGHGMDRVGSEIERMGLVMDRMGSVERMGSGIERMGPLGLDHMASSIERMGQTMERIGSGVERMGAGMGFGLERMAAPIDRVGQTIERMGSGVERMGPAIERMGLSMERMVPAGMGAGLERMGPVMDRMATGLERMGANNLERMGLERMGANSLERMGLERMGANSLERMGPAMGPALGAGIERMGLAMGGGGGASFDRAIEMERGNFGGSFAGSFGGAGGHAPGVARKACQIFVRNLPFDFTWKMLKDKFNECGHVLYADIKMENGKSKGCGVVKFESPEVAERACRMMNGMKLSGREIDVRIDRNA

A549 [4] = test: Antimigratory activity against TGFbeta-stimulated human A549 cells assessed as inhibition of cell migration at 10 uM measured for 1 day by cell scratch assay; assay type: functional, cell-based
A549 [5] = test: Downregulation of Vimentin mRNA expression in human A549 cells at 20 uM measured for 1 day bt RT-qPCR analysis; assay type: functional, cell-based
A549 [6] = test: Downregulation of E-cadherin mRNA expression in human A549 cells at 20 uM measured for 1 day bt RT-qPCR analysis; assay type: functional, cell-based
A549 [7] = test: Downregulation of CD44 mRNA expression in human A549 cells at 20 uM measured for 1 day bt RT-qPCR analysis; assay type: functional, cell-based
A549 [8] = test: Antimigratory activity against TGFbeta-stimulated human A549 cells assessed as inhibition of cell migration at 20 uM measured for 1 day by cell scratch assay; assay type: functional, cell-based
A549 [9] = test: Antimigratory activity against TGFbeta-stimulated human A549 cells assessed as inhibition of cell migration at 1 uM measured for 1 day by cell scratch assay; assay type: functional, cell-based
A549 [10] = test: Downregulation of Zeb 1 mRNA expression in human A549 cells at 20 uM measured for 1 day bt RT-qPCR analysis; assay type: functional, cell-based

Structure (SMILES)	Activity (A549 [2])	Activity (A549 [4])	Activity (A549 [8])	also measured
Cc1noc(C)c1CSc1nc2ccccc2n1-c1ccccc1	inactive			Activity (A549 [1]): inactive
Cc1ccnc(SCc2nc3ccccc3s2)n1	inactive	Active		inhibition [3]: Active
c1ccc(-n2c(SCc3nc4ccccc4s3)nc3ccccc32)cc1	inactive			
Cc1noc(C)c1CSc1nc2ccccc2s1	inactive			
Cc1noc(C)c1CSc1nc2ccccc2[nH]1	inactive	Active	Active	inhibition call (active/inactive) [3]: Active; Activity (A549 [5]): Active; Activity (A549 [6]): Active; Activity (A549 [7]): Active
Cn1c(SCc2nc3ccccc3s2)nc2ccccc21	inactive			
Cc1noc(C)c1CSc1nc2ccccc2n1C	inactive			
N#Cc1ccc(CSc2nc3ccccc3n2-c2ccccc2)cc1	inactive		Active	
c1ccc(CSc2nc3ccccc3n2-c2ccccc2)cc1	inactive			
c1ccc2[nH]c(SCc3nc4ccccc4s3)nc2c1	inactive	Active	Active	inhibition call (active/inactive) [3]: Active; Activity (A549 [5]): Active; Activity (A549 [6]): Active; Activity (A549 [9]): Active; Activity (A549 [7]): Active
c1ccc(-n2c(SCc3ccccn3)nc3ccccc32)cc1	inactive			
Cc1noc(C)c1CSc1nc2cc(Cl)c(Cl)cc2[nH]1	inactive	Active	Active	inhibition call (active/inactive) [3]: Active; Activity (A549 [5]): Active; Activity (A549 [10]): Active; Activity (A549 [6]): Active; Activity (A549 [7]): Active
COc1ccc(CSc2nc3ccccc3n2-c2ccccc2)cc1	inactive			
